Test results published in PMC4685510, “A Cell Biologist’s Field Guide to Aurora Kinase Inhibitors” (Frontiers in Oncology, 2015).

Assays:
Assay in all cases: biochemical
Format in all cases: biochemical
[1] = target: 363 human kinases (including Aurora A/B/C) (Homo sapiens, UniProt P16234); conditions: PDGFRa; for remaining activity at 0.1 µM: 100 nM; for remaining activity at 0.1 µM / remaining activity at 0.5 µM: read-out: % Enzyme Activity (relative to DMSO controls)
From the text: (§1) However, the Aurora A/B selectivity ratios derived from our in vitro and in vivo data can be compared to prioritize inhibitors.

[2] = target: T1, 363 human kinases (including Aurora A/B/C) (Homo sapiens, UniProt Q9NR20); conditions: DYRK4, [ATP] 2.5 µM; for remaining activity at 0.1 µM: 100 nM; for remaining activity at 0.1 µM / remaining activity at 0.5 µM: read-out: % Enzyme Activity (relative to DMSO controls)
T1 sequence (Q9NR20 1-520): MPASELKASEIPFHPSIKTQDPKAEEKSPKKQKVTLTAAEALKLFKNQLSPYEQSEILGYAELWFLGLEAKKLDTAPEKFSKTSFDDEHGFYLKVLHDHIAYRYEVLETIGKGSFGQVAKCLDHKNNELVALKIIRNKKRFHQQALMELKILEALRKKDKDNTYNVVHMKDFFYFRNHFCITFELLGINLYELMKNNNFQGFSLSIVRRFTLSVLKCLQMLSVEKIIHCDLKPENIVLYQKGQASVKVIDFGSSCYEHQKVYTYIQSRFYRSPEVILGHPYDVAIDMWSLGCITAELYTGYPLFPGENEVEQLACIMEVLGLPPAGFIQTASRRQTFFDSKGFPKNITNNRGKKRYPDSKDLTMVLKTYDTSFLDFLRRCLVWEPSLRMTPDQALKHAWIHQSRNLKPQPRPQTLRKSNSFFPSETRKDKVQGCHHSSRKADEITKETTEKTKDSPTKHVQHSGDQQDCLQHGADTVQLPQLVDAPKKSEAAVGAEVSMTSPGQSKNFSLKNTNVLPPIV
From the text: as §1

[3] = target: 363 human kinases (including Aurora A/B/C) (Homo sapiens, UniProt P49137); conditions: MAPKAPK2; for remaining activity at 0.1 µM: 100 nM; for remaining activity at 0.1 µM / remaining activity at 0.5 µM: read-out: % Enzyme Activity (relative to DMSO controls)
From the text: as §1

[4] = target: 363 human kinases (including Aurora A/B/C) (Homo sapiens, UniProt Q9UBS0); conditions: p70S6Kb/RPS6KB2; for remaining activity at 0.1 µM: 100 nM; for remaining activity at 0.1 µM / remaining activity at 0.5 µM: read-out: % Enzyme Activity (relative to DMSO controls)
From the text: as §1

[5] = target: 363 human kinases (including Aurora A/B/C) (Homo sapiens, UniProt Q9NQU5); conditions: PAK6; for remaining activity at 0.1 µM: 100 nM; for remaining activity at 0.1 µM / remaining activity at 0.5 µM: read-out: % Enzyme Activity (relative to DMSO controls)
From the text: as §1

[6] = target: 363 human kinases (including Aurora A/B/C) (Homo sapiens, UniProt P51617); conditions: IRAK1; for remaining activity at 0.1 µM: 100 nM; for remaining activity at 0.1 µM / remaining activity at 0.5 µM: read-out: % Enzyme Activity (relative to DMSO controls)
From the text: as §1

[7] = target: 363 human kinases (including Aurora A/B/C) (Homo sapiens, UniProt Q07912); conditions: ACK1, [ATP] 100 µM; for remaining activity at 0.1 µM: 100 nM; for remaining activity at 0.1 µM / remaining activity at 0.5 µM: read-out: % Enzyme Activity (relative to DMSO controls)
From the text: as §1

[8] = target: T2, 363 human kinases (including Aurora A/B/C) (Homo sapiens, UniProt Q56UN5); conditions: YSK4/MAP3K19; for remaining activity at 0.1 µM: 100 nM; for remaining activity at 0.1 µM / remaining activity at 0.5 µM: read-out: % Enzyme Activity (relative to DMSO controls)
T2 sequence (Q56UN5 1-1328): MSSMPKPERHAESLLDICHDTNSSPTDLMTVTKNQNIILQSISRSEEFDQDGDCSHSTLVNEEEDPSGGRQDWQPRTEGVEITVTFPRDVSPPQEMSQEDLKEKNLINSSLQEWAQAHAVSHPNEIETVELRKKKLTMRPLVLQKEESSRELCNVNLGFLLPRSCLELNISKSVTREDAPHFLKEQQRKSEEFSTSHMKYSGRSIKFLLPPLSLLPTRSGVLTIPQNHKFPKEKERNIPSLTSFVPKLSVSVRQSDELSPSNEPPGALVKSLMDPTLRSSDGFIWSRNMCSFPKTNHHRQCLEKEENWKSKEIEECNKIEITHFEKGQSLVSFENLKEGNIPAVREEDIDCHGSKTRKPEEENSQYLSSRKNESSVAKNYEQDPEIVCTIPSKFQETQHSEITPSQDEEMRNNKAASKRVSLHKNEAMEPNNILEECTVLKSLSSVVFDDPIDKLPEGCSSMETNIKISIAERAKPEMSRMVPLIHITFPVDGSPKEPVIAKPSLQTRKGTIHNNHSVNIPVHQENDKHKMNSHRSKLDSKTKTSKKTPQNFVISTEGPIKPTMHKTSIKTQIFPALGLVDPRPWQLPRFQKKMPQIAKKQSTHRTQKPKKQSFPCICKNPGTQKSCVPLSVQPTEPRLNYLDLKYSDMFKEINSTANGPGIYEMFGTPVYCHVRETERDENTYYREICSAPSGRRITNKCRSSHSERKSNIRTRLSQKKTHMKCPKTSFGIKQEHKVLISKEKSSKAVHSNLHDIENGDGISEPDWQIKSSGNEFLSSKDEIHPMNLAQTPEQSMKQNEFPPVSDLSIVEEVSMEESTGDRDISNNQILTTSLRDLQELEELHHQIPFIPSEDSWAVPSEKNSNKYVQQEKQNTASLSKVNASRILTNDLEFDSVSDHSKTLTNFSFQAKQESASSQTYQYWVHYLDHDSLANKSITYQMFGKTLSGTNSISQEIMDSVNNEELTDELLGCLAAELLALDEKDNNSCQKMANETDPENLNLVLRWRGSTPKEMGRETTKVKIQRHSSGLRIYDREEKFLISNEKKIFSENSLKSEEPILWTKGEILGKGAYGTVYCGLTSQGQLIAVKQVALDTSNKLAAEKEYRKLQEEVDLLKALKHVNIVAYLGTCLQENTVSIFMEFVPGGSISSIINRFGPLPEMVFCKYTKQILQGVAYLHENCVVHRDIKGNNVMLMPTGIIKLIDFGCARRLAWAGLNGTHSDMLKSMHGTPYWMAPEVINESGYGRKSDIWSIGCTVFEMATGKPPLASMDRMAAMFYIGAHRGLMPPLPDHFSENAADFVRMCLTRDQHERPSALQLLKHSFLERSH
From the text: as §1

[9] = target: 363 human kinases (including Aurora A/B/C) (Homo sapiens, UniProt Q5TCY1); conditions: TTBK1; for remaining activity at 0.1 µM: 100 nM; for remaining activity at 0.1 µM / remaining activity at 0.5 µM: read-out: % Enzyme Activity (relative to DMSO controls)
From the text: as §1

[10] = target: 363 human kinases (including Aurora A/B/C) (Homo sapiens, UniProt O75582); conditions: MSK1/RPS6KA5; for remaining activity at 0.1 µM: 100 nM; for remaining activity at 0.1 µM / remaining activity at 0.5 µM: read-out: % Enzyme Activity (relative to DMSO controls)
Chain of 363 human kinases (including Aurora A/B/C) (Homo sapiens, UniProt O75582) (O75582 whole entry): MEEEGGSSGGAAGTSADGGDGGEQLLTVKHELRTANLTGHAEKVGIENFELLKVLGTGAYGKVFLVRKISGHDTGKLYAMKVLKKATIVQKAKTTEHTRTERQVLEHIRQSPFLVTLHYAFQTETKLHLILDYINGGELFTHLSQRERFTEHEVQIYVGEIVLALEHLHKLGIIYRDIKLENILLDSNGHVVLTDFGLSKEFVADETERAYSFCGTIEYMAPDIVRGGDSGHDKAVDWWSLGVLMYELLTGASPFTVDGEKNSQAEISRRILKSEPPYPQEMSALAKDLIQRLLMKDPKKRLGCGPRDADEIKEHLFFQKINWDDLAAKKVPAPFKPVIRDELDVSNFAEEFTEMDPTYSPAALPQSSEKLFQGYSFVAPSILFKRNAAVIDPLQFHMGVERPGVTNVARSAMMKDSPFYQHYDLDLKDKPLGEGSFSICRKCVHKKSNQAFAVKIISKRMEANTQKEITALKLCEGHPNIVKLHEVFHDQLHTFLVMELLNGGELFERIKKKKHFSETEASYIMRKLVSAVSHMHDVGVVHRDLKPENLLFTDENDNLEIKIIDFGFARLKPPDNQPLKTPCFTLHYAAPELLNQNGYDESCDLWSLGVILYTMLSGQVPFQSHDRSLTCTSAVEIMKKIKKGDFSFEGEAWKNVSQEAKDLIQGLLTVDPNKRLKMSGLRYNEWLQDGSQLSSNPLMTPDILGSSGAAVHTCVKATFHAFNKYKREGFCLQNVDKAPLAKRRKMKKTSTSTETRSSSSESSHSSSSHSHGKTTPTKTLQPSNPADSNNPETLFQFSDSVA
From the text: as §1

Chain of 363 human kinases (including Aurora A/B/C) (Homo sapiens, UniProt Q9NQU5) (Q9NQU5 whole entry): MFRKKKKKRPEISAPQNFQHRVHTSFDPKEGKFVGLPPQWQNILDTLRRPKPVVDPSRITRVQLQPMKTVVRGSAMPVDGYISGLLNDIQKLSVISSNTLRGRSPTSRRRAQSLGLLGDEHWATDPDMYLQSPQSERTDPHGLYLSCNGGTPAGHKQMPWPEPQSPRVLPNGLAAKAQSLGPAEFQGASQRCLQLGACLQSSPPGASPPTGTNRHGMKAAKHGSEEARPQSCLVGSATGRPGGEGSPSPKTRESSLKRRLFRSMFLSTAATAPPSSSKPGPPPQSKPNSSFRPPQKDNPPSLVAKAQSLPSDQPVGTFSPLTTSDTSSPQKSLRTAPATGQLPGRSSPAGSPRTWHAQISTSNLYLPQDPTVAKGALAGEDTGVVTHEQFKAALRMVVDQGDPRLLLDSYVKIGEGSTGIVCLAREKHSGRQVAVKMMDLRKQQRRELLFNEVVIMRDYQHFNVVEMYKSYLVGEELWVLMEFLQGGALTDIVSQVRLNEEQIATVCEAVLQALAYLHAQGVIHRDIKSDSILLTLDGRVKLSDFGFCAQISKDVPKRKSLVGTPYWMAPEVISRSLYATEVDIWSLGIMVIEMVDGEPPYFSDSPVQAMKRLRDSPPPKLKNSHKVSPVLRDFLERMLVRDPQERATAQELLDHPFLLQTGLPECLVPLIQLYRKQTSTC
Chain of 363 human kinases (including Aurora A/B/C) (Homo sapiens, UniProt Q5TCY1) (Q5TCY1 whole entry): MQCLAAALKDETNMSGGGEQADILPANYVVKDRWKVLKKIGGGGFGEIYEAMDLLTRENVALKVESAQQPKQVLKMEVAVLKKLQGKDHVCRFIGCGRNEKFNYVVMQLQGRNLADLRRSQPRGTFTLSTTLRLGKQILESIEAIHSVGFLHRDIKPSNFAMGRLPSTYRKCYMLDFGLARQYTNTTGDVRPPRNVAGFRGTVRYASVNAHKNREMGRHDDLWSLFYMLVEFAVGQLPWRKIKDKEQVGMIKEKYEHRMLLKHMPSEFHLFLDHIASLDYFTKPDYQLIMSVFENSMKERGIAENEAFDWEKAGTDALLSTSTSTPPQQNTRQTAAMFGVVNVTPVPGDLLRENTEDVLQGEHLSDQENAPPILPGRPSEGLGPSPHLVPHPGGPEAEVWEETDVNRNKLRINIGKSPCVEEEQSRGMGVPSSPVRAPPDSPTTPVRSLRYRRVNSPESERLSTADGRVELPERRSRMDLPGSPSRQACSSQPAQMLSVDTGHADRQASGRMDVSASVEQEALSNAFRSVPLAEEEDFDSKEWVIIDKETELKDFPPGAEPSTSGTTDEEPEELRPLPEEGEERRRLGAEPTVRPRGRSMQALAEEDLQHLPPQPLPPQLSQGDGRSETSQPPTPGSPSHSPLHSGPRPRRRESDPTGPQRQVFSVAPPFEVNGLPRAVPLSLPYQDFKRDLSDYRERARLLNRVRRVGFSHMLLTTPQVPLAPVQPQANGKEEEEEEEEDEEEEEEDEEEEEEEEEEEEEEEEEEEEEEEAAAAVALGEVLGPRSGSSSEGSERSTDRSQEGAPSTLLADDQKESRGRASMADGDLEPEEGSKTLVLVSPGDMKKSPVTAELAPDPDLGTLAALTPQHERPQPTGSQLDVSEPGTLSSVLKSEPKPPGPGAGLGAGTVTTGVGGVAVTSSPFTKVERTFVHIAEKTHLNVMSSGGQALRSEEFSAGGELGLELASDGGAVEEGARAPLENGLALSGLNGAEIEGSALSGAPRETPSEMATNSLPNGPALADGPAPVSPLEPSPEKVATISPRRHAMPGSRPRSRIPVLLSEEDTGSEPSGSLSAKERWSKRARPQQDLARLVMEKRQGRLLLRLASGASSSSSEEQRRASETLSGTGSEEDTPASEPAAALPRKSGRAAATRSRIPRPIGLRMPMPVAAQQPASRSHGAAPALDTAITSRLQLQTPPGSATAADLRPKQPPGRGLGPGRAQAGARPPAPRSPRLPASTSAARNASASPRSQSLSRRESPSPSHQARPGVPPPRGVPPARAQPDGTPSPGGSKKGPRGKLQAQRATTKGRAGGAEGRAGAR
Chain of 363 human kinases (including Aurora A/B/C) (Homo sapiens, UniProt Q9UBS0) (Q9UBS0 whole entry): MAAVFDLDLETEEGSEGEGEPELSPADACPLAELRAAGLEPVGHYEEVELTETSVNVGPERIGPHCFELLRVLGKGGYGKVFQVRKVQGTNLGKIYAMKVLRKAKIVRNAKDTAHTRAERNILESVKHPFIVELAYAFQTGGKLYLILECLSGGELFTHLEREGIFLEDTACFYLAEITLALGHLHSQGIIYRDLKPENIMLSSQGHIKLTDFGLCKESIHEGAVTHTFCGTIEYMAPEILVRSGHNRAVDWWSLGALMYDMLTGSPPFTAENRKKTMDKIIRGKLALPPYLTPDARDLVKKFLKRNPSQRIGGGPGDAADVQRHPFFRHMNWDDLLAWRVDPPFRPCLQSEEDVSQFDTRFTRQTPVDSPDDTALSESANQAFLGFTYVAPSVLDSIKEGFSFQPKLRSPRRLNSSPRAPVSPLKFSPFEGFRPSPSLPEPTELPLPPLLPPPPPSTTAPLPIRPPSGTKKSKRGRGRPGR
Chain of 363 human kinases (including Aurora A/B/C) (Homo sapiens, UniProt P16234) (P16234 24-1089): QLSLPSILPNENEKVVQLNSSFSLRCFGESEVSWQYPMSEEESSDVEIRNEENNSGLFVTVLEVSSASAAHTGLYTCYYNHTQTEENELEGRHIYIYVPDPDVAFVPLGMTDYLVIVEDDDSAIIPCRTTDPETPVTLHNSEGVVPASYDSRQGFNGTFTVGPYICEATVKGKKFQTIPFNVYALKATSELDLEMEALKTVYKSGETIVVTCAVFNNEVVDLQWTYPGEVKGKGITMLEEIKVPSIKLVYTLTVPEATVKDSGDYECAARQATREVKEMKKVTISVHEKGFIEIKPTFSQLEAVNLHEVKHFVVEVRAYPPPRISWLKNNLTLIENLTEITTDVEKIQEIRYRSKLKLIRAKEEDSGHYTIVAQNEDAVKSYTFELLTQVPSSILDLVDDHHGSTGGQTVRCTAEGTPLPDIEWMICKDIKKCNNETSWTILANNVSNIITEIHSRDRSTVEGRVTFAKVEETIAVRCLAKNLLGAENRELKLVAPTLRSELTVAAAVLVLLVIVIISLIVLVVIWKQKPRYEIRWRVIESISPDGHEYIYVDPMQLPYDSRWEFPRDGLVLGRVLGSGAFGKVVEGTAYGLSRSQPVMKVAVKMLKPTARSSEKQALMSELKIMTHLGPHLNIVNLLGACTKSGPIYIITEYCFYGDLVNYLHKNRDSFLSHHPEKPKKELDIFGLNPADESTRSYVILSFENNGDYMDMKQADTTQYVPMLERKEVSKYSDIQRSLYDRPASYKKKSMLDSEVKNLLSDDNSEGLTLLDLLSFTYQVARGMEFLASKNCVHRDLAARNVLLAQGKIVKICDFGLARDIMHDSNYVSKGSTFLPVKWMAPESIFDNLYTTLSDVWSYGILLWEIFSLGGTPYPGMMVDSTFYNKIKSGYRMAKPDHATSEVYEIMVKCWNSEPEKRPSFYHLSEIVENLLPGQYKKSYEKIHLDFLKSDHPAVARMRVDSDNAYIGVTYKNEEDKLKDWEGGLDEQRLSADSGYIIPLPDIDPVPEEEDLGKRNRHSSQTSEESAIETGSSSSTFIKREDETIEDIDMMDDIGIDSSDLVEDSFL
Chain of 363 human kinases (including Aurora A/B/C) (Homo sapiens, UniProt P49137) (P49137 whole entry): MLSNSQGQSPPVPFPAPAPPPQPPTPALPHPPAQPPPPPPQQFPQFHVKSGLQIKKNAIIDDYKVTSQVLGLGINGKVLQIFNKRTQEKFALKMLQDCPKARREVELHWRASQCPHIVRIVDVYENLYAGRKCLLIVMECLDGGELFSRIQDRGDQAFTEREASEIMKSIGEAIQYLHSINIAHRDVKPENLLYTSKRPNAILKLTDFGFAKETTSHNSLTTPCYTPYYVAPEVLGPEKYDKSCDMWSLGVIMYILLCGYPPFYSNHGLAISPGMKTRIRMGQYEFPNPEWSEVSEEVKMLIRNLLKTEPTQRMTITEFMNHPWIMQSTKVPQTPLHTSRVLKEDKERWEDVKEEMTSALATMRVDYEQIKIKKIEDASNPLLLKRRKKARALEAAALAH

| SMILES | remaining activity at 0.1 µM [1] | remaining activity at 0.1 µM [2] | remaining activity at 0.1 µM [3] | remaining activity at 0.1 µM [4] | remaining activity at 0.1 µM [5] | remaining activity at 0.1 µM [6] | remaining activity at 0.1 µM [7] | remaining activity at 0.1 µM [8] | remaining activity at 0.1 µM [9] | remaining activity at 0.1 µM [10] | remaining activity at 0.5 µM ([1]; 500 nM) | remaining activity at 0.5 µM ([2]; 500 nM) | remaining activity at 0.5 µM ([3]; 500 nM) | remaining activity at 0.5 µM ([4]; 500 nM) | remaining activity at 0.5 µM ([5]; 500 nM) | remaining activity at 0.5 µM ([6]; 500 nM) | remaining activity at 0.5 µM ([7]; 500 nM) | remaining activity at 0.5 µM ([8]; 500 nM) | remaining activity at 0.5 µM ([9]; 500 nM) | remaining activity at 0.5 µM ([10]; 500 nM) | also measured |
| --- | --- | --- | --- | --- | --- | --- | --- | --- | --- | --- | --- | --- | --- | --- | --- | --- | --- | --- | --- | --- | --- |
| CCn1cc(-c2ccnc3[nH]c(-c4cccc(CN(C)C)c4)cc23)c(-c2ccc(NC(=O)N(C)C)cc2)n1 [GSK1070916] | 94% | 95.3% | 95.6% | 110% | 103% | 122% | 83.9% | 99.2% | 115% | 101% |  |  |  |  |  |  |  |  |  |  |  |
| O=C(O)[C@]1(Cc2cccc(Nc3nccs3)n2)CC[C@@H](Oc2cccc(Cl)c2F)CC1 [MK-5108] | 97.1% | 99.4% | 102% | 100% | 99.8% | 5.35% | 15.8% | 16.1% | 101% | 99.7% | 92.6% | 93.6% | 100% | 99% | 97% | 1.01% | 1.62% | 8.95% | 116% | 86.8% |  |
| O=C(c1cccc(Cl)c1F)N1CCN(Cc2cccc(Nc3nccs3)n2)CC1 [MK-8745] |  |  |  |  |  |  |  |  |  |  | 99.8% | 89.1% | 92.9% | 99.3% | 90.3% | 19% | 51.9% | 91.4% | 111% | 96.3% | % Enzyme Activity (relative to DMSO controls) ([1]; 500 nM): 99.66%; % Enzyme Activity (relative to DMSO controls) ([2]; 500 nM): 88.59%; % Enzyme Activity (relative to DMSO controls) ([3]; 500 nM): 92.28%; % Enzyme Activity (relative to DMSO controls) ([4]; 500 nM): 97.78%; % Enzyme Activity (relative to DMSO controls) ([5]; 500 nM): 89.27%; % Enzyme Activity (relative to DMSO controls) ([6]; 500 nM): 18.29%; % Enzyme Activity (relative to DMSO controls) ([7]; 500 nM): 50.10%; % Enzyme Activity (relative to DMSO controls) ([8]; 500 nM): 88.95%; % Enzyme Activity (relative to DMSO controls) ([9]; 500 nM): 108.75%; % Enzyme Activity (relative to DMSO controls) ([10]; 500 nM): 93.34% |
